Experimental data from publication PMC7281206, “Cysteine Cathepsins Inhibition Affects Their Expression and Human Renal Cancer Cell Phenotype” (Cancers, 2020).
*: point of attachment. CH2F = FC*

Assays:
[1] = test system: human recombinant CtsL; test: Fluorescent protease activity assay, recombinant CtsL; type: biochemical; settings: 20 nM CtsL, 50 μM Ac-PLVQ-AMC, inhibitor 2 μM; 0.1 M sodium acetic buffer pH 4.6, 12 min, Ex/Em 353/442 nm
Experimental: Ac-PLVE-FMK and Ac-VLPE-FMK inhibitory properties were evaluated against human recombinant CtsL and B. These recombinant enzymes were expressed in E. coli via plasmid transformation and further purification, using nickel-nitrilotriacetic acid (Ni-NTA) sepharose. Gel zymography assay was used to provide a preliminary evaluation of the ability of these recombinant proteins to degrade the gelatin substrate previously embedded in the gel (Supplementary Figure S1). Following Coomassie staining, the Cts were detectable as single bands. As expected, a translucent area was evident, due to the substrate digestion in the proximity of the proteins. Then, the recombinant proteins were tested for their ability to digest the Triticain-α substrate Ac-PLVQ via fluorescent protease activity assay, previously optimized by our group. This probe was conjugated with the fluorogenic chromophore 7-amino-4-methylcoumarin (Ac-PLVQ-AMC). After proteolytic cleavage, it emits a detectable fluorescent signal.
Total RNA extract from retinoblastoma […] cells was used to obtain cDNA. A pair of oligonucleotides ([…] and […]) was used for the amplification of DNA fragment containing CtsB, the product of which was ligated into pET15b (Merck Millipore, Billerica, MA, USA) using NdeI and XhoI. DNA fragment containing CtsL was amplified using a pair of oligonucleotides ([…] and […]) and ligated into pET28a (+) (Merck Millipore, Billerica, MA, USA) using NheI and HindIII. […]
The activity of recombinant CtsL and B was detected by the hydrolysis of the fluorogenic substrate Ac-Pro-Leu-Val-Gln- 7-amino-4-methylcoumarin (AMC) (Pepmic Suzhou Jiangsu, China). […] The substrate was added to a final concentration of 50 μM, and its hydrolysis was continuously measured for 12 min using a CLARIOstar® Plus plate reader (BMG Labtech Ortenberg Baden-Württemberg, Germany) at excitation and emission wavelengths of 353 and 442 nm, respectively.

[2] = test system: E-cadherin in A498 cells; test: E-cadherin protein expression (western blot), A498; type: cell-based, human; settings: first 48 h
Experimental: These properties could be the result of the modulation of the effectors controlling EMT, as previously shown in other tumor models. To test this hypothesis, the cells were treated with the inhibitors for 24, 48, and 72 h by changing the media every day, and they were tested for E-cadherin and SNAIL1 expression (Figure 6; detail information of western blots can be seen in Supplementary Figure S7). Figure 6 Effects of the peptides on E-cadherin and SNAIL1 protein expression: (a,b) protein expression of E-cadherin and SNAIL1 in 769-P and (c,d) A498 cells after 24, 48, and 72 h of treatment with the peptides. Data are represented as mean ± SD of at least three replicates. Significance was calculated through one-way ANOVA, followed by Dunnet’s test. Cells were seeded in RPMI containing 10% FBS and cultured for 24 h. Next, 30 µM of inhibitors were added to the culture medium and incubated for 24, 48, and 72 h. Control cells were treated with 0.01% DMSO. At all time points the samples were lysed in 50 mM Tri-HCl (pH 8.0), 100 mM NaCl, 0.5% NP-40, 1% Triton X-100, 1× protease inhibitor cocktail (ThermoFisher, Waltham, MA, USA). The 50 µg of protein lysates were separated by electrophoresis on a 12% SDS-PAGE gel and transferred to the PFDF membranes. […] After an additional wash (three times with PBS), reactive bands were detected by chemiluminescence (Bio-Rad, Irvine, CA, USA). […]

[3] = test system: LAMP-1 in 769-P cells; test: LAMP-1 expression (confocal microscopy), 769-P; type: cell-based, human; settings: 20 μM
Experimental: Figure 7 Effect of the peptides on LAMP-1 protein expression: (a) Western blotting analysis of LAMP-1 after treatment with PLVE and VLPE (20 μM) for 24, 48, and 72 h in 769-P cells. (b) Confocal microscopy evaluation of LAMP-1 expression after 48 and 72 h of treatment with PLVE and VLPE (20 μM) in 769-P cells. (c) Western blotting analysis of LAMP-1 after treatment with PLVE and VLPE (20 μM) for 24, 48, and 72 h in A498 cells. (d) Confocal microscopy evaluation of LAMP-1 expression after 48 and 72 h of treatment with PLVE and VLPE (20 μM) in A498 cells. Data are represented as mean ± SD of at least three replicates. Significance was calculated through one-way ANOVA followed by Dunnet’s test. * = p < 0.05, ** = p < 0.01, *** = p < 0.001. The cells were treated for 48 and 72 h, then were fixed in 4% PFA/PBS for 15 min and permeabilized in 0.25% Triton®X-100 for 10 min. After blocking the non-specific sites in 2% BSA/PBS-T, the immunofluorescence was performed overnight with primary antibody anti-LAMP-1 (1:100, Abcam, Eugene, OR, USA) incubation, followed by incubation with the appropriate fluorophore-labeled secondary antibody Donkey anti-Rabbit IgG (H+L) ReadyProbes™, Alexa Fluor 488 (1:500; ThermoFisher, USA). The cells were then counterstained with nuclear dye DAPI and visualized under a fluorescent and/or confocal microscope (Olympus BX51, Shinjuku, Tokyo, Japan, and AxioObserver Z1, Zeiss, Oberkochen, Germany) using oil-immersion lenses.

## Ac-PLVE-CH2F [Ac-PLVE-FMK]
[1]
  Inhibition of Ac-PLVQ-AMC cleavage (fluorescent signal): the intensity of the fluorescent signal was significantly affected
[2]
  E-cadherin protein expression: increased the protein expression of E-cadherin in the first 48 h in both the cell lines
[3]; 48 h
  LAMP-1 expression (confocal): increased LAMP-1 expression
[3]; 72 h
  LAMP-1 expression (confocal): the content of LAMP-1 decreased towards control levels

## Ac-VLPE-CH2F [Ac-VLPE-FMK]
[1]
  Inhibition of Ac-PLVQ-AMC cleavage (fluorescent signal): the intensity of the fluorescent signal was significantly affected
[2]
  E-cadherin protein expression: increased the protein expression of E-cadherin in the first 48 h in both the cell lines
[3]; 48 h
  LAMP-1 expression (confocal): increased LAMP-1 expression
[3]; 72 h
  LAMP-1 expression (confocal): the content of LAMP-1 decreased towards control levels
